System: PCA response
Assay: Rat Passive Cutaneous Anaphylaxis (PCA) test, ovalbumin challenge
Type: in vivo, Wistar rats
Conditions: for % Inhibition of PCA response: 34 mg/kg
Procedure: All of the 2-nitro indane-1,3-dione prepared in the preceding Examples were submitted for biological testing. The test system was the Rat Passive Cutaneous Anaphylaxis (PCA) test described below in (ii).
Male Wister rats of 250- 300 g, were injected intraperitoneally with 0.5 ml of Bordatella pertussis vaccine (containing 4× 10^10 dead organism per ml) and subcutaneously with 0.5 ml of an emulsion of 100 mg. of ovalbumin in 2 ml of saline and 3 ml of incomplete Freunds' adjuvant. Rats were bled by cardiac puncture on day 18, the blood was pooled and separated and serum stored at -20° and thawed only once before use.
0.1 ml of each of six twofold serial dilutions of the serum in 0.9% saline were injected intradermally into separate sites on the shaved dorsal surface of 250-350 g. Wistar rats. 72 hours later the animals were challenged by i.v. injection of 0.3 ml of 1% ovalbumin mixed with 0.1 ml of a 5% solution of pontamine sky blue dye both in isotonic saline buffered with pH. 7.2 Sorenson buffer (P.B.S.). The rats were killed after 20 minutes and the diameter of the blue wheals at the antibody injection sites were measured. The starting dilution of the serum was adjusted so that there was no response, after challenge, at the site of injection of the highest dilution and a maximum response at the lowest dilution.
Amounts of the compounds were administered to rats each amount to a test group of six animals at a specified time prior to intravenous challenge with ovalbumin.
For those compounds having insoluble sodium salts, the salts were isolated by reaction of the free nitro compound with 2.5N sodium hydroxide and the filtered sodium washed free of alkali with water. The dried salts were then administered as a suspension in 1% methyl cellulose.

[1] = 25 mg/kg, 0 min between dosing and challenge, solution of Na salt
[2] = 25 mg/kg, 30 min between dosing and challenge, solution of Na salt
[3] = 100 mg/kg, 0 min between dosing and challenge, solution of Na salt
[4] = 100 mg/kg, 30 min between dosing and challenge, solution of Na salt
[5] = 25 mg/kg, 60 min between dosing and challenge, solution of Na salt
[6] = 100 mg/kg, 60 min between dosing and challenge, solution of Na salt
[7] = 25 mg/kg, 0 min between dosing and challenge, suspension of Na salt in 1% methyl cellulose
[8] = 25 mg/kg, 60 min between dosing and challenge, suspension of Na salt in 1% methyl cellulose
[9] = 100 mg/kg, 0 min between dosing and challenge, suspension of Na salt in 1% methyl cellulose
[10] = 100 mg/kg, 60 min between dosing and challenge, suspension of Na salt in 1% methyl cellulose

Row | SMILES | % INHIBITION OF PCA RESPONSE [1] [%] | % INHIBITION OF PCA RESPONSE [2] [%] | % INHIBITION OF PCA RESPONSE [3] [%] | % INHIBITION OF PCA RESPONSE [4] [%] | % INHIBITION OF PCA RESPONSE [7] [%] | % INHIBITION OF PCA RESPONSE [8] [%] | % INHIBITION OF PCA RESPONSE [9] [%] | % INHIBITION OF PCA RESPONSE [10] [%] | also measured
1 | COc1cc(C)cc2c1C(=O)C([N+](=O)[O-])C2=O (stereo not drawn) [4-Methoxy-6-methyl-2-nitro indane-1,3-dione] | 34 | 31 | 80 | 24 |  |  |  |  | 
2 | Cc1cc(C)c2c(c1)C(=O)C([N+](=O)[O-])C2=O (stereo not drawn) [4,6-dimethyl-2-nitroindane-1,3-dione, 4,6-Dimethyl-2-nitro-indane-1,3-dione] | 58 | 27 |  |  |  |  |  |  | 
3 | O=C1c2cccc(-c3ccccc3)c2C(=O)C1[N+](=O)[O-] (stereo not drawn) [2-nitro-4-phenyl indane 1,3 indione, 2-Nitro-4-Phenyl indane-1,3-dione] | 12 |  | 8 |  |  |  |  |  | % INHIBITION OF PCA RESPONSE [5]: 22%; % INHIBITION OF PCA RESPONSE [6]: 24%
4 | O=C1c2cccc(F)c2C(=O)C1[N+](=O)[O-] (stereo not drawn) [4-fluoro-2-nitroindane-1,3-dione, 4-Fluoro-2-nitro indane-1,3-dione] | 48 | 8 | 86 | 30 |  |  |  |  | 
5 | Cc1cccc2c1C(=O)C([N+](=O)[O-])C2=O (stereo not drawn) [4-methyl-2-nitroindane-1,3-dione, 4-Methyl-2-nitroindane-1,3-dione] |  |  |  |  | 2 | 33 | 6 | 57 | 
6 | O=C1c2ccc3c(c2C(=O)C1[N+](=O)[O-])CCC3 (stereo not drawn) [4,5-cyclopentano 2-nitroindane 1,3-dione, 4,5-Cyclopentano-2-nitro indane-1,3-dione] |  |  |  |  | 5 | 34 | 26 | 28 | 
7 | CC(C)COc1cccc2c1C(=O)C([N+](=O)[O-])C2=O (stereo not drawn) [4-isobutyloxy-2-nitroindane 1,3-dione, 4-Isobutyloxy-2-nitro indane-1,3-dione] | 61 | 28 | 78 | 41 |  |  |  |  | 
8 | O=C1c2c(Cl)c(Cl)c(Cl)c(Cl)c2C(=O)C1[N+](=O)[O-] [2-Nitro-4,5,6,7-tetrachloro indane-1,3-dione] | -13 |  | -3 |  |  |  |  |  | % INHIBITION OF PCA RESPONSE [5]: 9%; % INHIBITION OF PCA RESPONSE [6]: 7%
9 | O=C1c2cccc(Br)c2C(=O)C1[N+](=O)[O-] (stereo not drawn) [4-bromo-2-nitroindane-1,3-dione, 4-Bromo-2-nitro indane-1,3dione] |  |  |  |  | 8 | 24 | -4 | 70 | 
10 | O=C1c2ccc(-c3ccccc3)cc2C(=O)C1[N+](=O)[O-] (stereo not drawn) [2-nitro-5-phenyl indane-1,3-dione, 2-Nitro-5-phenyl indane-1,3-dione] |  |  |  |  | 58 | 56 | 82 | 36 | 
11 | CCc1cc(OC)c2c(c1)C(=O)C([N+](=O)[O-])C2=O (stereo not drawn) [6-Ethyl-4-methoxy-2-nitro indane-1,3-dione] | 66 | 37 | 91 | 32 |  |  |  |  | 
12 | CC(C)Oc1cccc2c1C(=O)C([N+](=O)[O-])C2=O (stereo not drawn) [4-isopropyloxy-2-nitroindane 1,3-dione, 4Isopropyloxy-2-nitro-indane-1,3-dione] |  |  |  |  | 23 |  | 49 |  | % INHIBITION OF PCA RESPONSE (25 mg/kg, 30 min between dosing and challenge, suspension of Na salt in 1% methyl cellulose): 36%; % INHIBITION OF PCA RESPONSE (100 mg/kg, 30 min between dosing and challenge, suspension of Na salt in 1% methyl cellulose): 51%
13 | O=C1c2ccc3ccccc3c2C(=O)C1[N+](=O)[O-] (stereo not drawn) [2-nitrobenz(e) indane-1,3-dione, 2-Nitro benz(e)indane-1,3-dione] |  |  |  |  | 16 | 50 | 13 | 47 | 
14 | O=C1c2ccc(Br)cc2C(=O)C1[N+](=O)[O-] (stereo not drawn) [5-bromo-2-nitroindane-1,3-dione, 5-Bromo-2-nitro indane-1,3-dione] | 46 |  | 30 |  |  |  |  |  | % INHIBITION OF PCA RESPONSE [5]: 87%; % INHIBITION OF PCA RESPONSE [6]: 64%
15 | CCOc1cccc2c1C(=O)C([N+](=O)[O-])C2=O (stereo not drawn) [4-ethoxy-2-nitroindane-1,3-dione, 4-Ethoxy-2-nitro indane-1,3-dione] | 13 | 68 | 76 | 55 |  |  |  |  | 
16 | CCCOc1cccc2c1C(=O)C([N+](=O)[O-])C2=O (stereo not drawn) [4-n-propyloxy 2-nitroindane 1,3-dione, 2-Nitro-4-n-Propyloxy indane-1,3-dione] | 77 | 37 | 30 | 37 |  |  |  |  | 
17 | CCc1cccc2c1C(=O)C([N+](=O)[O-])C2=O (stereo not drawn) [4-ethyl-2-nitroindane-1,3-dione, 4-Ethyl-2-nitro indane-1,3-dione] |  |  |  |  | -5 | 23 | 1 | 25 | 
18 | COc1ccc(C)c2c1C(=O)C([N+](=O)[O-])C2=O (stereo not drawn) [4-Methoxy-7-methyl-2-nitro indane1,3-dione] | 34 | 62 | 36 | 44 |  |  |  |  | 
19 | O=C1c2ccc3c(c2C(=O)C1[N+](=O)[O-])CCCC3 (stereo not drawn) [4,5-cyclohexano 2-nitroindane 1,3-dione, 4,5-Cyclohexano-2-nitroindane-1,3-dione] |  |  |  |  |  |  |  |  | % Inhibition of PCA response (0 min between dosing and challenge, suspension of Na salt in 1% methyl cellulose): 7%; % Inhibition of PCA response (60 min between dosing and challenge, suspension of Na salt in 1% methyl cellulose): 32%
20 | Cc1ccc(C)c2c1C(=O)C([N+](=O)[O-])C2=O [4,7-dimethyl-2-nitroindane-1,3-dione, 4,7-Dimethyl-2-nitro-indane-1,3-dione] |  |  |  |  | 35 | 16 | 46 | 8 | 
21 | Cc1ccc2c(c1)C(=O)C([N+](=O)[O-])C2=O (stereo not drawn) [5-methyl-2-nitroindane-1,3-dione, 5-Methyl-2-nitroindane-1,3-dione] | 66 | 44 | 100 | 47 |  |  |  |  | 
22 | O=C1c2cc3ccccc3cc2C(=O)C1[N+](=O)[O-] [2-nitro-benz[f] indane 1,3-dione, 2-Nitro benz[f] indane-1,3-dione] |  |  |  |  | 100 | 37 | 100 | 72 | 
23 | COc1cccc2c1C(=O)C([N+](=O)[O-])C2=O (stereo not drawn) [4-methoxy-2-nitroindane-1,3-dione, 4-Methoxy-2-nitro indane-1,3-dione] |  |  |  |  | -2 | 25 | 18 | 36 | 
24 | Cc1cc2c(cc1C)C(=O)C([N+](=O)[O-])C2=O [5,6-dimethyl-2-nitroindane-1,3-dione, 5,6-Dimethyl-2-nitro-indane-1,3-dione] |  |  |  |  | 92 | 48 | 73 | 54 | 
25 | CCCCOc1cccc2c1C(=O)C([N+](=O)[O-])C2=O (stereo not drawn) [4-n-butyloxy-2-nitroindane 1,3-dione, 4-n-Butyloxy-2-nitro indane-1,3-dione] | 29 |  | 63 |  |  |  |  |  | % INHIBITION OF PCA RESPONSE [5]: 43%; % INHIBITION OF PCA RESPONSE [6]: 50%

Reference: patent US3988476A, “Pharmaceutical compositions and methods of treating allergic conditions utilizing 2-nitroindane-1,3-dione derivatives as the active agent” (Beecham Group Limited, priority 1972, dated 1976)
